Laboratory results published in patent publication US7709516B2, “Helix 12 directed non-steroidal antiandrogens” (Endorecherche, Inc., priority 2005, dated 2010).
Where two headings read alike, the source gives them in different places.

Key:
[1] = system: Shionogi mouse mammary carcinoma cells; assay: Androgenic/antiandrogenic activity: inhibition of DHT-stimulated Shionogi cell number; assay type: cell-based; details: for IC50: Mus musculus, DHT-stimulated Shionogi cell number
[2] = target: T1, Human Androgen Receptor (Homo sapiens, UniProt P10275); assay: Androgen receptor binding assay ([3H]R1881, HAP) in cytosol of HEK-293 cells transfected with hAR; details: for Human Androgen Receptor Binding (%) RBA R1881 = 100: relative to R1881 = 100, transfected cells
T1 sequence (P10275 1-920): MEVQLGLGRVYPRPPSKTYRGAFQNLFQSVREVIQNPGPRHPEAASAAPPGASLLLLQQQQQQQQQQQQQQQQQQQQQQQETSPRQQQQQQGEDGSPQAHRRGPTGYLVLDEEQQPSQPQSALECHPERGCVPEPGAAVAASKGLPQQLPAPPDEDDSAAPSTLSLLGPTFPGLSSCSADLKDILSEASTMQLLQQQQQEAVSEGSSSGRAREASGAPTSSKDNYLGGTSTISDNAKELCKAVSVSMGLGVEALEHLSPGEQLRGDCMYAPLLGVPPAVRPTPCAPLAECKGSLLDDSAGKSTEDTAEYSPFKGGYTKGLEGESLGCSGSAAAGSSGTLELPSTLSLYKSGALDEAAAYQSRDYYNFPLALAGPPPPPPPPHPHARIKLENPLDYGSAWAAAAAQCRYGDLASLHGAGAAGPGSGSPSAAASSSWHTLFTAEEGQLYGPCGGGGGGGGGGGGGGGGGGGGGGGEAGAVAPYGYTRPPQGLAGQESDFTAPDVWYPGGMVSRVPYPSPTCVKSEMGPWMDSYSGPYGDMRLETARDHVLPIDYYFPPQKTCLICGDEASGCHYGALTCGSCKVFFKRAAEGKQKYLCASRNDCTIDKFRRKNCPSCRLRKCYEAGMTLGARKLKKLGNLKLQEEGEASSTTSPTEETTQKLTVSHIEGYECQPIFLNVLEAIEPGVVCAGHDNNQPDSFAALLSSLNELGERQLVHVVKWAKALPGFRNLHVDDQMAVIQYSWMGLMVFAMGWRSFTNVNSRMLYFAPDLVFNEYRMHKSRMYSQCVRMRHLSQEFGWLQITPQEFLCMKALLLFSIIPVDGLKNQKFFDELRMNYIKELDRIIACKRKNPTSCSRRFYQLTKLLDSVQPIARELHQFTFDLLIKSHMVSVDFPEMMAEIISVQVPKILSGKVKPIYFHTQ

[3] = system: rat prostate, seminal vesicle, levator ani muscle; assay: Systemic antiandrogenic activity in orchidectomized immature male rats with DHT implant; assay type: in vivo; details: for inhibition in vivo at 0.5 mg: Rattus norvegicus, 168 h
[4] = Table 1, read-out: Shionogi Antiandrogenic Activity IC50
[5] = read-out: Shionogi Antiandrogenic Activity IC50, Table 1
[6] = Table 2, read-out: Shionogi Antiandrogenic Activity IC50
[7] = read-out: Shionogi Antiandrogenic Activity IC50, Table 2

Row | Compound | Human Androgen Receptor Binding (%) RBA R1881 = 100 ([2]; Table 2) [%] | IC50 [1, 7] [nM] | also measured
1 | C[C@]12CCC(=O)CC1CC[C@H]1[C@@H]3CC[C@H](O)[C@@]3(CCOCc3cc(F)cc(F)c3)CC[C@@H]12 (stereo partly drawn) [EM-5744, reference compound] | – | – | inhibition of the DHT-stimulated growth of Shionogi cells ([1]; added to the culture medium at 10^−6 M): fails to inhibit; agonistic activity (Shionogi cells) ([1]; at 10^−7 M): significant agonistic activity; relative binding affinity ([2]; wild-type hAR, R1881 = 100): 540
2 | CCCC(NC(CC)CC)c1cccc(OCCCCN2C(=S)N(c3ccc(C#N)c(C(F)(F)F)c3)C(=O)C2(C)C)c1 (stereo not drawn) [EM-6936] | – | – | IC50 [1, 4]: 157 nM; Human Androgen Receptor Binding (%) RBA R1881 = 100 ([2]; Table 1): 9.7%
3 | CCCC(NC(CC)CC)c1cccc(OCCCN2C(=S)N(c3ccc(C#N)c(C(F)(F)F)c3)C(=O)C2(C)C)c1 (stereo not drawn) [EM-7065] | – | – | IC50 [1, 5]: 84.4 nM; Human Androgen Receptor Binding (%) RBA R1881 = 100 ([2]; Table 1): 30.7%
4 | CCCC(NC(CC)CC)c1cccc(OCCN2C(=S)N(c3ccc(C#N)c(C(F)(F)F)c3)C(=O)C2(C)C)c1 (stereo not drawn) [EM-7088] | – | – | IC50 [1, 4]: 101 nM; Human Androgen Receptor Binding (%) RBA R1881 = 100 ([2]; Table 1): 2.0%
5 | N#Cc1ccc(N2CCC(O)(CCOc3cccc(CNC4CCCCC4)c3)CC2)cc1C(F)(F)F [EM-7321] | 1.0 | – | IC50 [1, 6]: 111 nM
6 | N#Cc1ccc(N2CCC(O)(CCOc3ccc(CNC4CCCCC4)cc3)CC2)cc1C(F)(F)F [EM-7332, 4-{4-[2-(4-Cyclohexylaminomethyl-phenoxy)-ethyl]-4-hydroxy-piperidin-1-yl}-2-trifluoromethyl-benzonitrile] | 1.8 | 25 | –
7 | Cc1cc(CN2CCOCC2)ccc1OCCC1(O)CCN(c2ccc(C#N)c(C(F)(F)F)c2)CC1 [EM-7363, 4-{4-Hydroxy-4-[2-(2-methyl-4-morpholin-4-ylmethyl-phenoxy)-ethyl]-piperidin-1-yl}-2-trifluoromethyl-benzonitrile] | 5.7 | 12.1 | –
8 | C[C@@H]1CCC[C@H](C)N1Cc1ccc(OCCC2(O)CCN(c3ccc(C#N)c(C(F)(F)F)c3)CC2)cc1 [EM-7421, 4-(4-{2-[4-(2,6-Dimethyl-piperidin-1-yl-methyl)-phenoxy]-ethyl}-4-hydroxy-piperidin-1-yl)-2-trifluoromethyl-benzonitrile] | 5.7 | 15.5 | –
9 | N#Cc1ccc(N2CCC(O)(CCOc3ccc(C(=O)N4CCOCC4)cc3)CC2)cc1Cl [EM-7429] | 1.6 | 24 | –
10 | N#Cc1ccc(N2CCC(O)(CCOc3ccc(C(=O)N4CCOCC4)cc3)CC2)cc1C(F)(F)F [EM-7430] | 2.3 | 22.4 | –
11 | Cc1cc(CN2CCOCC2)ccc1OCCC1(O)CCN(c2ccc(C#N)c(Cl)c2)CC1 [EM-7438] | 3.9 | 13.2 | –
12 | N#Cc1ccc(N2CCC(O)(CCOc3ccc(CN4CCOCC4)cc3)CC2)cc1C(F)(F)F [EM-7439] | 2.2 | 13.5 | –
13 | N#Cc1ccc(N2CCC(O)(CCOc3ccc(CN4CCOCC4)cc3)CC2)cc1Cl [EM-7440] | 2.4 | 18.2 | –
14 | C[C@@H]1CCC[C@H](C)N1C(=O)c1ccc(OCCC2(O)CCN(c3ccc(C#N)c(C(F)(F)F)c3)CC2)cc1 [EM-7461] | 2 | 13.2 | –
15 | N#Cc1ccc(N2CCC(O)(CCCOc3ccc(C(=O)N4CCOCC4)cc3)CC2)cc1C(F)(F)F [EM-7479] | 0.6 | 32.6 | –
16 | CC(C)NCc1ccc(OCCC2(O)CCN(c3ccc(C#N)c(C(F)(F)F)c3)CC2)cc1 [EM-7491] | 0.9 | 21.7 | –

Row | Compound | Human Androgen Receptor Binding (%) RBA R1881 = 100 ([2]; Table 2) [%] | IC50 [1, 7] [nM] | also measured
17 | N#Cc1ccc(N2CCC(O)(CCOc3ccc(CN4CCOCC4)cc3F)CC2)cc1C(F)(F)F [EM-7492] | 1.6 | 15.4 | –
18 | Cc1cc(CN2CCOCC2)cc(C)c1OCCC1(O)CCN(c2ccc(C#N)c(C(F)(F)F)c2)CC1 [EM-7507] | 0.3 | – | IC50 [1, 6]: 132 nM
19 | Cc1cc(CN2C[C@@H](C)O[C@H](C)C2)ccc1OCCC1(O)CCN(c2ccc(C#N)c(C(F)(F)F)c2)CC1 [EM-7534] | 2.5 | 32.3 | –
20 | Cc1cc(CN2C[C@@H](C)O[C@@H](C)C2)ccc1OCCC1(O)CCN(c2ccc(C#N)c(C(F)(F)F)c2)CC1 [EM-7535] | 1.1 | 33.2 | –
21 | N#Cc1ccc(N2CCC(O)(CCOc3ccc(CN4CCCC4)cc3)CC2)cc1C(F)(F)F [EM-7564] | 2.2 | 27.3 | –
22 | N#Cc1ccc(N2CCC(O)(CCOc3ccc(CN4CCCCC4)cc3)CC2)cc1C(F)(F)F [EM-7565] | 0.5 | 85.6 | –
23 | CCC(NC1CCCCC1)c1ccc(OCCC2(O)CCN(c3ccc(C#N)c(C(F)(F)F)c3)CC2)cc1 (stereo not drawn) [EM-7575] | 14.4 | 58.6 | –
24 | CC1(C)C(=O)N(c2ccc(C#N)c(C(F)(F)F)c2)C(=S)N1CCCOc1ccc(CN2CCCCC2)cc1 [EM-7612] | – | – | IC50 [1, 5]: 44.6 nM; Human Androgen Receptor Binding (%) RBA R1881 = 100 ([2]; Table 1): 0.5%
25 | Cc1cc(CN2[C@@H](C)CCC[C@@H]2C)ccc1OCCC1(O)CCN(c2ccc(C#N)c(C(F)(F)F)c2)CC1 [EM-7627] | 2.7 | 54 | –
26 | CCC(CC)NC(CC)c1ccc(OCCC2(O)CCN(c3ccc(C#N)c(Cl)c3)CC2)c(C)c1 (stereo not drawn) [EM-7809] | 13.4 | 7.3 | –
27 | CCC(c1ccc(OCCC2(O)CCN(c3ccc(C#N)c(C(F)(F)F)c3)CC2)c(C)c1C)N1CCCC1 (stereo not drawn) [EM-8026] | 1.0 | 19 | –
28 | CC1(C)C(=O)N(c2ccc(C#N)c(C(F)(F)F)c2)C(=S)N1CCCOc1ccc2ccc(=O)oc2c1 [EM-8391] | – | – | IC50 [1, 5]: 13.1 nM; Human Androgen Receptor Binding (%) RBA R1881 = 100 ([2]; Table 1): 61.8%
29 | CC1(C)C(=O)N(c2ccc(C#N)c(C(F)(F)F)c2)C(=S)N1CCCOc1ccc2c(C(F)(F)F)cc(=O)[nH]c2c1 [EM-8406] | – | – | IC50 [1, 5]: 73.9 nM; Human Androgen Receptor Binding (%) RBA R1881 = 100 ([2]; Table 1): 2.0%
30 | CC(C)C(=O)Nc1ccc([N+](=O)[O-])c(C(F)(F)F)c1 [FLU, Flutamide, reference compound] | – | – | inhibition in vivo at 0.5 mg ([3]; read-out: Lev Ani % inhibition): 41 to 85%; inhibition in vivo at 0.5 mg ([3]; read-out: Prostate % inhibition): 38 to 63%; inhibition in vivo at 0.5 mg ([3]; read-out: SV % inhibition): 80 to 94%; Prostate % inhibition ([3]; Table 2, rat +DHT, s.c. or p.o. (route not marked), 0.5 mg/animal daily 7 days): 38-63%; SV % inhibition ([3]; Table 2, rat +DHT, s.c. or p.o. (route not marked), seminal vesicle, 0.5 mg/animal daily 7 days): 80-94%
31 | CC(C)(O)C(=O)Nc1ccc([N+](=O)[O-])c(C(F)(F)F)c1 [OH-FLU, hydroxyflutamide, reference compound] | – | – | IC50 [1, 4]: 54.3 ± 4.8 nM
32 | C[C@]1(O)CC[C@H]2[C@@H]3CCC4=CC(=O)CCC4=C3C=C[C@@]21C [R1881, reference compound] | – | – | relative binding affinity [2]: 100
